In patent US20260315468A1, “PHARMACEUTICAL COMPOSITION AND USE THEREOF” (SHANGHAI ALLIST PHARMACEUTICAL CO., LTD., priority 2022, published 2026):

Tested on: EGFR PACC mutant NSCLC
Assay: Clinical trial, open-label, multi-center, dose-escalation and dose expansion, preliminary tumor assessment
Format: in vivo, human
Conditions: for Maximum SLD % change from baseline: one patient
Source text: An open-label, multi-center, dose-escalation and dose expansion study was designed and carried out to evaluate the safety, pharmacokinetics (PK), and preliminary antitumor activity of furmonertinib in patients with advanced or metastatic non-small cell lung cancer (NSCLC) with activating (including uncommon) Epidermal Growth Factor Receptor (EGFR) or Human Epidermal Growth Factor Receptor 2 (HER2) mutations. The first stage of the trial involved a dose escalation trial segment to evaluate once-daily dosing of furmonertinib starting at 240 mg daily, with subsequent patient cohorts to be administered furmonertinib at a higher or lower dose, if necessary, followed by expansion cohorts in defined patient groups with furmonertinib administered at 240 mg (and 160 mg in the case of EGFR PACC mutant NSCLC) daily.
General enrollment criteria include: • 1) Histologically or cytologically documented, locally advanced or metastatic Non-Small Cell Lung Cancer (NSCLC) not amenable to curative surgery or radiotherapy; • 2) Disease that has progressed after at least one available standard therapy; or for whom standard therapy has proven to be ineffective or intolerable; or for whom a clinical trial of an investigational agent is a recognized standard of care; • 3) Documented radiologic disease progression during or after the last systemic anti-cancer therapy before the first dose of furmonertinib; • 4) For patients with Epidermal Growth Factor Receptor (EGFR) mutations sensitive to osimertinib, the patient must have received osimertinib prior to study enrollment in regions where osimertinib is approved, including the US.
Exclusion criteria include: • 1) Treatment with chemotherapy, targeted therapy, biologic therapy or an investigational agent as anti-cancer therapy within […] or 5 elimination half-lives prior to initiation of furmonertinib, whichever is shorter; • 2) Radiation therapy as cancer therapy within 4 weeks prior to initiation of furmonertinib; • 3) Palliative radiation to bone metastases within 2 weeks prior to initiation of furmonertinib; • 4) AE from prior anticancer therapy that have not resolved to Grade ≤1 except for alopecia or Grade ≤2 peripheral neuropathy.

C=CC(=O)Nc1cc(Nc2nccc(-c3cn(C)c4ccccc34)n2)c(OCC(F)(F)F)nc1N(C)CCN(C)C [furmonertinib, N-{2-{[2-(dimethylamino)ethyl](methyl)amino}-6-(2,2,2-trifluoroethoxy)-5-{[4-(1-methyl-1H-indol-3-yl)pyrimidin-2-yl]amino}pyridin-3-yl}acrylamide]
Maximum SLD % change from baseline (160 mg QD, EGFR mutation E709A + L858R, prior anti-tumor therapy: None): −40%
tumor size and clinical activity (240 mg QD and 160 mg QD, NSCLC patients with EGFR PACC mutation, no previous TKI treatment): a decrease in tumor size and clinical activity
Maximum SLD % change from baseline (240 mg QD, EGFR mutation G719A, prior anti-tumor therapy: None): −23%
Maximum SLD % change from baseline (240 mg QD, EGFR mutation S768I + V769L, prior 1L: CARBOPLATIN + PEMETREXED + PEMBROLIZUMAB): −30%
